Measurements reported in patent publication US4097595A, “7-Amino-thiazolyl acetamido cephalosporanic acids” (Roussel Uclaf, priority 1976, dated 1978).
Converted amounts (≈) assume the structure as drawn. Like-named read-outs stand apart in the source and are kept apart here.

Legend:
[1] = system: Escherichia Coli (T) 026B6; test: Experimental infection with Escherichia Coli (T) 026B6 in mice; format: in vivo; conditions: for Mice living on 8th day: subcutaneous, 1, 5 and 24 hours after infection, control 0/10
Method: Again, the activity of the product of Example 2 was tested against experimental infection of Escherichia Coli in mice. Groups of 10 male mice weighing about 23 g were infected with an intraperitoneal injection of 0.5 ml of a 24 hour culture in Pasteur nutritive media of Escherichia Coli (T) 026B6 diluted by 1/6 with distilled water. The test product was administered subcutaneously one hour, five hours and 24 hours after the infection and the mortality was determined during 8 days.

[2] = system: Escherichia Coli (T) 0 26 B 6; test: MIC, dilution method in liquid media, Escherichia Coli (T) 026 B6; format: cell-based
Method: (§1) A series of tubes were prepared with the same quantity of sterile nutrive media and increasing quantities of the test product was distributed to each tube. Then, each tube was seeded with a bacterial strain and after incubation at 37° C for 24 or 48 hours, the inhibition of the growth was determined by transillumination which permitted determination of the minimum inhibitory concentrations (M.I.C.) in μg/ml.

[3] = system: Staphylococcus aureus UC 1 061 (penicillin sensible); test: MIC, dilution method in liquid media, Staphylococcus aureus UC 1061, penicillin sensible; format: cell-based; conditions: Staphylococcus Oxford UC 1061, penicillin sensible
Method: as §1

[4] = system: Escherichia Coli UC 1 261; test: MIC, dilution method in liquid media, Escherichia Coli UC 1 261; format: cell-based
Method: as §1

Bacillus subtilis = test: MIC, dilution method in liquid media, Bacillus subtilis; format: cell-based; conditions: read-out: MIC
Method: as §1

[5] = system: Proteus mirabilis (indol); test: MIC, dilution method in liquid media, Proteus mirabilis (indol); format: cell-based; conditions: read-out: MIC
Method: as §1

[6] = system: Klebsiella pneumoniae 52 145; test: MIC, dilution method in liquid media, Klebsiella pneumoniae 52 145; format: cell-based; conditions: read-out: MIC
Method: as §1

[7] = system: Escherichia Coli UC 1 020; test: MIC, dilution method in liquid media, Escherichia Coli UC 1 020; format: cell-based; conditions: read-out: MIC
Method: as §1

[8] = system: Proteus mirabilis No. A 235; test: In vivo activity, experimental infection of Proteus mirabilis in mice; conditions: for Mice living on 8th day: subcutaneous, 1, 5 and 24 hours after infection, controls 0/10; for Mortality after 21 h 15: subcutaneous, number of dead of 10 mice, controls 10
Method: The product of Example 2 was studied for its effect on an experimental infection of Proteus mirabilis in mice. Groups of 10 male mice weighing about 22.5 g were infected by an intraperitoneal injection of 0.5 ml of a 24 hour culture in Pasteur nutritive media of Proteus mirabilis No. A 235 diluted by 1/4 with distilled water.
The mice received a subcutaneous injection 1 hour, 5 hours and 24 hours after the infection of a quantity of the product of Example 2 and the mortality was noted during 8 days.

[9] = system: Streptococcus hemolyticus; test: MIC, dilution method in liquid media, Streptococcus hemolyticus; format: cell-based; conditions: Streptococcus pyogenes
Method: as §1

[10] = system: staphylococcus aureus 54,146; test: In vivo activity, experimental staphylococcia in mice; conditions: for Mice living after 8th day: subcutaneous, 1, 5 and 24 hours after infection
Method: The antibacterial activity of the compound of Example 2 was determined against experimental staphylococcia in mice. Lots of 10 male mice weighing about 21.5 g were infected by intraperitoneal injection of 0.5 ml of a 24 hour culture of staphylococcus aureus 54,146 in Pasteur nutritive broth diluted by 1/5 with distilled water. The test product was administered subcutaneously 1 hour, 5 hours and 24 hours after the infection in different doses.

[11] = system: Streptococcus faecalis 5 432; test: MIC, dilution method in liquid media, Streptococcus faecalis 5 432; format: cell-based; conditions: read-out: MIC
Method: as §1

[12] = system: Staphylococcus aureus 54 146; test: MIC, dilution method in liquid media, Staphylococcus aureus 54 146; format: cell-based; conditions: read-out: MIC
Method: as §1

[13] = system: Staphylococcus aureus UC 1128 (penicillin resistant); test: MIC, dilution method in liquid media, Staphylococcus aureus UC 1128, penicillin resistant; format: cell-based
Method: as §1

[14] = 0.5 mg in each injection, subcutaneous, number of dead of 10 mice
[15] = 0.1 mg in each injection, subcutaneous, number of dead of 10 mice
[16] = 0.25 mg in each injection, subcutaneous, number of dead of 10 mice

## CC(=O)SCC1=C(C(=O)O)N2C(=O)C(NC(=O)Cc3csc(N)n3)[C@H]2SC1 (stereo partly drawn) [Example 2, 7-[2-(2-amino-4-thiazolyl)-acetamido]-3-acetylthiomethyl-ceph-3-eme-4-carboxylic acid]
[1]; 0.5 mg in each injection
  Mice living on 8th day: 0/10
[1]; [14]
  Mortality at 21 h 15: 6
  Mortality at 24 h 15: 1
  Mortality at 27 h 45: 1
  Mortality at 45 h 30: 1
  Mortality at 70 h: 1
[1]; 1 mg in each injection
  Mice living on 8th day: 9/10
[1]; 1 mg in each injection, subcutaneous, number of dead of 10 mice
  Mortality at 30 h 45: 1
[2]; 24 h
  MIC: 3 µg/mL (≈ 7 µM)
[2]; 48 h
  MIC: 3 µg/mL (≈ 7 µM)
[3]; 24 H
  MIC: 0.5 µg/mL (≈ 1.17 µM)
[3]; 48 H
  MIC: 0.5 µg/mL (≈ 1.17 µM)
[4]; UC1, 24 h
  MIC: 1 µg/mL (≈ 2.33 µM)
[4]; UC1, 48 h
  MIC: 1 µg/mL (≈ 2.33 µM)
Bacillus subtilis; 24 h
  MIC: 0.1 µg/mL (≈ 0.233 µM)
Bacillus subtilis; 48 h
  MIC: 0.5 µg/mL (≈ 1.17 µM)
[5]; 24 h
  MIC: 1 µg/mL (≈ 2.33 µM)
[5]; 48 h
  MIC: 1 µg/mL (≈ 2.33 µM)
[6]; Klebsiella pneumoniae, 52145, 24 h
  MIC: 0.5 µg/mL (≈ 1.17 µM)
[6]; Klebsiella pneumoniae, 52145, 48 h
  MIC: 0.5 µg/mL (≈ 1.17 µM)
[7]; UC1, 24 h
  MIC: 2 µg/mL (≈ 4.67 µM)
[7]; UC1, 48 h
  MIC: 5 µg/mL (≈ 11.7 µM)
[8]; 0.1 mg in each injection
  Mice living on 8th day: 8/10
  Mortality after 21 h 15: 2
[8]; 0.25 mg in each injection
  Mice living on 8th day: 10/10
  Mortality after 21 h 15: 0
[8]; 0.5 mg in each injection
  Mice living on 8th day: 10/10
  Mortality after 21 h 15: 0
[8]; 0.75 mg in each injection
  Mice living on 8th day: 10/10
  Mortality after 21 h 15: 0
[9]; 24 h
  MIC: 0.05 µg/mL (≈ 0.117 µM)
[9]; 48 H, in bacto Todd Hewitt Broth pH = 7.8, read-out: MIC
  MIC: 0.1 µg/mL (≈ 0.233 µM)
[10]; 0.1 mg in each injection
  Mice living after 8th day: 0/10
[10]; [15]
  Mortality after 9 h 45: 1
  Mortality after 22 h 30: 8
  Mortality after 29 h: 1
[10]; 0.25 mg in each injection
  Mice living after 8th day: 6/10
[10]; [16]
  Mortality after 22 h 30: 1
  Mortality after 25 h 30: 1
  Mortality after 4 d: 1
  Mortality after 5 d: 1
[10]; 0.5 mg in each injection
  Mice living after 8th day: 9/10
[10]; [14]
  Mortality after 4 d: 1
[10]; 0.75 mg in each injection
  Mice living after 8th day: 10/10
[10]; 1 mg in each injection
  Mice living after 8th day: 10/10
[11]; Enterococcus faecalis, 5432, 24 h
  MIC: 5 µg/mL (≈ 11.7 µM)
[11]; Enterococcus faecalis, 5432, 48 h
  MIC: > 40 µg/mL
[12]; Staphylococcus aureus, 54146, 24 h
  MIC: 0.6 µg/mL (≈ 1.4 µM)
[12]; Staphylococcus aureus, 54146, 48 h
  MIC: 0.6 µg/mL (≈ 1.4 µM)
[13]; UC1128, 24 H
  MIC: 1 µg/mL (≈ 2.33 µM)
[13]; UC1128, 48 H
  MIC: 1 µg/mL (≈ 2.33 µM)
